# Values of other authors as cited in patent US20070275092A1, “Therapeutic composition supporting the immune system” (priority 2005, published 2007).
# Conditions: per day
smiles,measurement,value
[Zn] [zinc],dosage well tolerated but with potential side effects such as anemia (attributable to copper deficiency),200 mg
